Experimental data: patent publication US7138361B2, “Herbicidal heterocycles” (E. I. du Pont de Nemours and Company, priority 2000, dated 2006)

Legend:
Format in all cases: in vivo
[1] = tested on: barnyardgrass (Echinochloa crus-galli); experiment: Test C flooded paddy test; details: for Barnyardgrass plant response rating: Flooded Paddy, scale 0 to 100, 0 no effect, 100 complete control; for Plant response rating, Barnyardgrass: flooded paddy test, scale 0 to 100 (0 no effect, 100 complete control)
Procedure, shortened: (§1)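 Flooded paddy, 2-leaf stage at treatment. Readout: visual % control vs untreated, 0–100, at 12–14 d in greenhouse.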

[2] = tested on: duck salad (Heteranthera limosa); experiment: Test C flooded paddy test; details: for Ducksalad plant response rating: Flooded Paddy, scale 0 to 100, 0 no effect, 100 complete control; for Plant response rating, Ducksalad: flooded paddy test, scale 0 to 100 (0 no effect, 100 complete control)
Procedure, shortened: as §1

rice (Oryza saliva) [3] = experiment: Test C flooded paddy test; details: for Rice plant response rating: Flooded Paddy, scale 0 to 100, 0 no effect, 100 complete control; for Plant response rating, Rice: flooded paddy test, scale 0 to 100 (0 no effect, 100 complete control)
Procedure, shortened: as §1

[4] = tested on: barnyardgrass (Echinochloa crus-galli); experiment: Test B flooded paddy test; details: Rate 1000 g/ha, scale of 0 to 100 where 0 is no effect and 100 is complete control, visually evaluated after 13 to 15 days
Procedure, shortened: (§2)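 Visual injury score on a 0–100 scale, where 100 means complete control, assigned against untreated controls 13 to 15 days after plants at the 2-leaf stage were treated under flooded paddy conditions.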

[5] = tested on: smallflower flatsedge (Cyperus difformis); experiment: Test B flooded paddy test; details: Rate 1000 g/ha, scale of 0 to 100 where 0 is no effect and 100 is complete control, visually evaluated after 13 to 15 days
Procedure, shortened: as §2

[6] = tested on: duck salad (Heteranthera limosa); experiment: Test B flooded paddy test; details: Rate 1000 g/ha, scale of 0 to 100 where 0 is no effect and 100 is complete control, visually evaluated after 13 to 15 days
Procedure, shortened: as §2

rice (Oryza saliva) [7] = experiment: Test B flooded paddy test; details: Rate 1000 g/ha, scale of 0 to 100 where 0 is no effect and 100 is complete control, visually evaluated after 13 to 15 days
Procedure, shortened: as §2

[8] = tested on: giant foxtail (Setaria faberii); experiment: Test C postemergence
Procedure, shortened: (§3)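 Visual injury scores of 0–100, with 100 meaning complete control, were given relative to controls after 12–14 days in the greenhouse. Treatments used a surfactant-containing non-phytotoxic solvent formulation, sprayed on seeded pots preemergence or on 1–4-leaf plants of 2–18 cm postemergence.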

[9] = tested on: woolly cupgrass (Eriochloa villosa); experiment: Test C postemergence
Procedure, shortened: as §3

[10] = tested on: johnsongrass (Sorghum halepense); experiment: Test C postemergence
Procedure, shortened: as §3

[11] = tested on: crabgrass (Digitaria sanguinalis); experiment: Test C postemergence
Procedure, shortened: as §3

[12] = tested on: pigweed (Amaranthus retroflexus); experiment: Test C postemergence
Procedure, shortened: as §3

[13] = tested on: chickweed (Stellaria media); experiment: Test C postemergence
Procedure, shortened: as §3

[14] = tested on: morningglory (Ipomoea hederacea); experiment: Test C postemergence
Procedure, shortened: as §3

kochia (Kochia scoparia) = experiment: Test C postemergence
Procedure, shortened: as §3

[15] = tested on: yellow nutsedge (Cyperus esculentus); experiment: Test C postemergence
Procedure, shortened: as §3

[16] = tested on: common ragweed (Ambrosia elatior); experiment: Test C postemergence
Procedure, shortened: as §3

corn (Zea mays) = experiment: Test C postemergence
Procedure, shortened: as §3

[17] = tested on: cocklebur (Xanthium strumarium); experiment: Test C postemergence
Procedure, shortened: as §3

[18] = tested on: Surinam grass (Brachiaria decumbens); experiment: Test C postemergence
Procedure, shortened: as §3

[19] = tested on: bermudagrass (Cynodon dactylon); experiment: Test C postemergence
Procedure, shortened: as §3

Sunflower = experiment: Test C preemergence; details: Rate 31 g/ha, scale 0 to 100
[20] = Rate 125 g/ha, scale 0 to 100, 0 no effect, 100 complete control
[21] = Rate 250 g/ha, scale 0 to 100 (0 no effect, 100 complete control)
[22] = Rate 62 g/ha, scale 0 to 100, 0 no effect, 100 complete control
[23] = Rate 500 g/ha, scale 0 to 100 (0 no effect, 100 complete control)

CCC(C)c1ccn(C2SCN(c3cccc(C(F)(F)F)c3)C2=O)n1 (centres unmarked) [Compound 20]
Barnyardgrass plant response rating ([1]; Rate 250 g/ha): 100
Barnyardgrass plant response rating ([1]; Rate 500 g/ha): 100
Plant response rating, Barnyardgrass ([1]; Rate 62 g/ha): 70
Plant response rating, Barnyardgrass ([1]; Rate 125 g/ha): 100
Ducksalad plant response rating ([2]; Rate 250 g/ha): 100
Ducksalad plant response rating ([2]; Rate 500 g/ha): 100
Plant response rating, Ducksalad ([2]; Rate 62 g/ha): 100
Plant response rating, Ducksalad ([2]; Rate 125 g/ha): 100
Rice plant response rating (rice (Oryza saliva) [3]; Rate 250 g/ha): 60
Rice plant response rating (rice (Oryza saliva) [3]; Rate 500 g/ha): 70
Plant response rating, Rice (rice (Oryza saliva) [3]; Rate 62 g/ha): 0
Plant response rating, Rice (rice (Oryza saliva) [3]; Rate 125 g/ha): 20
Plant response rating, Barnyardgrass [4]: 100
Plant response rating, Flatsedge [5]: 100
Plant response rating, Ducksalad [6]: 100
Plant response rating, Rice (rice (Oryza saliva) [7]): 100
Plant response rating, Foxtail, Giant [8, 20]: 0
Plant response rating, Foxtail, Giant [8, 21]: 70
Plant response rating, Cupgrass, Woolly [9, 20]: 0
Plant response rating, Cupgrass, Woolly [9, 21]: 0
Plant response rating, Johnsongrass [10, 20]: 0
Plant response rating, Johnsongrass [10, 21]: 80
Plant response rating, Crabgrass [11, 20]: 0
Plant response rating, Crabgrass [11, 21]: 0
Plant response rating, Pigweed [12, 20]: 70
Plant response rating, Pigweed [12, 21]: 80
Plant response rating, Chickweed [13, 22]: 50
Plant response rating, Chickweed [13, 20]: 50
Plant response rating, Chickweed [13, 21]: 70
Plant response rating, Morningglory [14, 20]: 20
Plant response rating, Morningglory [14, 21]: 20
Plant response rating, Kochia (kochia (Kochia scoparia); [20]): 70
Plant response rating, Kochia (kochia (Kochia scoparia); [21]): 70
Plant response rating, Nutsedge [15, 20]: 0
Plant response rating, Nutsedge [15, 21]: 0
Plant response rating, Ragweed, Common [16, 20]: 30
Plant response rating, Ragweed, Common [16, 21]: 30
Plant response rating, Corn (corn (Zea mays); [20]): 0
Plant response rating, Corn (corn (Zea mays); [21]): 0
Plant response rating, Cocklebur [17, 21]: 60
Plant response rating, Surinam grass [18, 22]: 0
Plant response rating, Surinam grass [18, 20]: 0
Plant response rating, Surinam grass [18, 21]: 0
Plant response rating, Bermudagrass [19, 22]: 60
Plant response rating, Bermudagrass [19, 20]: 90
Plant response rating, Bermudagrass [19, 21]: 90

CCC(CC)c1ccn(C2SCN(c3cccc(C(F)(F)F)c3)C2=O)n1 (centres unmarked) [Compound 21]
Plant response rating, Sunflower (Sunflower): 20
Barnyardgrass plant response rating ([1]; Rate 250 g/ha): 50
Barnyardgrass plant response rating ([1]; Rate 500 g/ha): 100
Plant response rating, Barnyardgrass ([1]; Rate 62 g/ha): 40
Plant response rating, Barnyardgrass ([1]; Rate 125 g/ha): 50
Ducksalad plant response rating ([2]; Rate 250 g/ha): 90
Ducksalad plant response rating ([2]; Rate 500 g/ha): 100
Plant response rating, Ducksalad ([2]; Rate 62 g/ha): 80
Plant response rating, Ducksalad ([2]; Rate 125 g/ha): 90
Rice plant response rating (rice (Oryza saliva) [3]; Rate 250 g/ha): 70
Rice plant response rating (rice (Oryza saliva) [3]; Rate 500 g/ha): 70
Plant response rating, Rice (rice (Oryza saliva) [3]; Rate 62 g/ha): 0
Plant response rating, Rice (rice (Oryza saliva) [3]; Rate 125 g/ha): 20
Plant response rating, Barnyardgrass [4]: 100
Plant response rating, Flatsedge [5]: 100
Plant response rating, Ducksalad [6]: 100
Plant response rating, Rice (rice (Oryza saliva) [7]): 90
Plant response rating, Foxtail, Giant ([8]; Rate 31 g/ha, scale 0 to 100): 0
Plant response rating, Foxtail, Giant [8, 20]: 0
Plant response rating, Cupgrass, Woolly ([9]; Rate 31 g/ha, scale 0 to 100): 0
Plant response rating, Cupgrass, Woolly [9, 20]: 0
Plant response rating, Johnsongrass ([10]; Rate 31 g/ha, scale 0 to 100): 0
Plant response rating, Johnsongrass [10, 20]: 50
Plant response rating, Crabgrass ([11]; Rate 31 g/ha, scale 0 to 100): 0
Plant response rating, Crabgrass [11, 20]: 0
Plant response rating, Pigweed ([12]; Rate 31 g/ha, scale 0 to 100): 50
Plant response rating, Pigweed [12, 20]: 70
Plant response rating, Chickweed ([13]; Rate 31 g/ha, scale 0 to 100): 30
Plant response rating, Chickweed [13, 22]: 50
Plant response rating, Chickweed [13, 20]: 50
Plant response rating, Morningglory ([14]; Rate 31 g/ha, scale 0 to 100): 0
Plant response rating, Morningglory [14, 20]: 60
Plant response rating, Kochia (kochia (Kochia scoparia); Rate 31 g/ha, scale 0 to 100): 30
Plant response rating, Kochia (kochia (Kochia scoparia); [20]): 40
Plant response rating, Nutsedge ([15]; Rate 31 g/ha, scale 0 to 100): 0
Plant response rating, Nutsedge [15, 20]: 0
Plant response rating, Ragweed, Common ([16]; Rate 31 g/ha, scale 0 to 100): 0
Plant response rating, Ragweed, Common [16, 20]: 50
Plant response rating, Corn (corn (Zea mays); Rate 31 g/ha, scale 0 to 100): 0
Plant response rating, Corn (corn (Zea mays); [20]): 0
Plant response rating, Cocklebur ([17]; Rate 31 g/ha, scale 0 to 100): 20
Plant response rating, Cocklebur [17, 20]: 30
Plant response rating, Surinam grass ([18]; Rate 31 g/ha, scale 0 to 100): 0
Plant response rating, Surinam grass [18, 22]: 0
Plant response rating, Surinam grass [18, 20]: 0
Plant response rating, Bermudagrass ([19]; Rate 31 g/ha, scale 0 to 100): 50
Plant response rating, Bermudagrass [19, 22]: 50
Plant response rating, Bermudagrass [19, 20]: 50

CCC(CC)c1ccn(C2SCN(c3cccc(C(F)(F)F)c3)C2=O)n1 (centres unmarked) [Compound 25]
Plant response rating, Sunflower (Sunflower): 0
Barnyardgrass plant response rating ([1]; Rate 250 g/ha): 100
Barnyardgrass plant response rating ([1]; Rate 500 g/ha): 100
Plant response rating, Barnyardgrass ([1]; Rate 62 g/ha): 100
Plant response rating, Barnyardgrass ([1]; Rate 125 g/ha): 100
Ducksalad plant response rating ([2]; Rate 250 g/ha): 100
Ducksalad plant response rating ([2]; Rate 500 g/ha): 100
Plant response rating, Ducksalad ([2]; Rate 62 g/ha): 100
Plant response rating, Ducksalad ([2]; Rate 125 g/ha): 100
Rice plant response rating (rice (Oryza saliva) [3]; Rate 250 g/ha): 60
Rice plant response rating (rice (Oryza saliva) [3]; Rate 500 g/ha): 80
Plant response rating, Rice (rice (Oryza saliva) [3]; Rate 62 g/ha): 30
Plant response rating, Rice (rice (Oryza saliva) [3]; Rate 125 g/ha): 20
Plant response rating, Barnyardgrass [4]: 100
Plant response rating, Flatsedge [5]: 100
Plant response rating, Ducksalad [6]: 100
Plant response rating, Rice (rice (Oryza saliva) [7]): 90
Plant response rating, Foxtail, Giant [8, 20]: 30
Plant response rating, Foxtail, Giant [8, 21]: 80
Plant response rating, Foxtail, Giant [8, 23]: 90
Plant response rating, Cupgrass, Woolly [9, 20]: 40
Plant response rating, Cupgrass, Woolly [9, 21]: 60
Plant response rating, Cupgrass, Woolly [9, 23]: 70
Plant response rating, Johnsongrass [10, 20]: 20
Plant response rating, Johnsongrass [10, 21]: 50
Plant response rating, Johnsongrass [10, 23]: 90
Plant response rating, Crabgrass [11, 20]: 30
Plant response rating, Crabgrass [11, 21]: 70
Plant response rating, Crabgrass [11, 23]: 90
Plant response rating, Pigweed [12, 20]: 90
Plant response rating, Pigweed [12, 21]: 100
Plant response rating, Pigweed [12, 23]: 100
Plant response rating, Chickweed [13, 22]: 60
Plant response rating, Chickweed [13, 20]: 70
Plant response rating, Chickweed [13, 21]: 80
Plant response rating, Chickweed [13, 23]: 90
Plant response rating, Morningglory [14, 21]: 80
Plant response rating, Morningglory [14, 23]: 100
Plant response rating, Kochia (kochia (Kochia scoparia); [20]): 70
Plant response rating, Kochia (kochia (Kochia scoparia); [21]): 70
Plant response rating, Kochia (kochia (Kochia scoparia); [23]): 70
Plant response rating, Nutsedge [15, 20]: 0
Plant response rating, Nutsedge [15, 21]: 0
Plant response rating, Nutsedge [15, 23]: 0
Plant response rating, Ragweed, Common [16, 20]: 0
Plant response rating, Ragweed, Common [16, 21]: 30
Plant response rating, Ragweed, Common [16, 23]: 40
Plant response rating, Corn (corn (Zea mays); [20]): 0
Plant response rating, Corn (corn (Zea mays); [21]): 20
Plant response rating, Corn (corn (Zea mays); [23]): 30
Plant response rating, Cocklebur [17, 20]: 60
Plant response rating, Cocklebur [17, 21]: 60
Plant response rating, Cocklebur [17, 23]: 60
Plant response rating, Surinam grass [18, 22]: 0
Plant response rating, Surinam grass [18, 20]: 0
Plant response rating, Surinam grass [18, 21]: 0
Plant response rating, Surinam grass [18, 23]: 0
Plant response rating, Bermudagrass [19, 22]: 60
Plant response rating, Bermudagrass [19, 20]: 70
Plant response rating, Bermudagrass [19, 21]: 90
Plant response rating, Bermudagrass [19, 23]: 90
